IC50 data for 33 compounds are collected here from patent US20260265195A1, “SARM1 MODULATORS, PREPARATIONS, AND USES THEREOF” (SIRONAX LTD, priority 2022, published 2026).

Some results are limits rather than exact numbers.

The target in this assay is T1, SARM1 (50-724) (Homo sapiens, UniProt Q6SZW1).
T1 construct: Purified SARM1 (50-724) with a final concentration of 2 nM
T1 sequence (Q6SZW1 50-724): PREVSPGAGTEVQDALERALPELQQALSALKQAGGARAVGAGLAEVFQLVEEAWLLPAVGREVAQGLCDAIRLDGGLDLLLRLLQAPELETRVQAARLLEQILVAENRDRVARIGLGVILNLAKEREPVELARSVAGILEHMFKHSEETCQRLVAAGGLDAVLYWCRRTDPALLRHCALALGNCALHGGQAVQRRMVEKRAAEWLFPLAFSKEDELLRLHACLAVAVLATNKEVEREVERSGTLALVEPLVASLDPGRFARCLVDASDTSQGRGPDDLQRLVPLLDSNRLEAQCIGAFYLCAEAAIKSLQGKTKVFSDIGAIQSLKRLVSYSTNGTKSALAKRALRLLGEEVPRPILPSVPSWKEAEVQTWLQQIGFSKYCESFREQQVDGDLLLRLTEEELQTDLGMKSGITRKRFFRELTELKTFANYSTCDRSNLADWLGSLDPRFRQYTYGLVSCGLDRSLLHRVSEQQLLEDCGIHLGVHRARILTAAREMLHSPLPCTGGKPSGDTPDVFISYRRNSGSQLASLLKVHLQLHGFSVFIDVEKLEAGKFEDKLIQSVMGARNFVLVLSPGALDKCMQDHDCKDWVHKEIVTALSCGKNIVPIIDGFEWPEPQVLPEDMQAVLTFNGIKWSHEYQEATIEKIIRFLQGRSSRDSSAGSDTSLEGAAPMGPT
Briefly: SARM1 (50-724) enzymatic assay (NMN-activated NAD+ hydrolysis, LC-MS/MS readout). In kind it is biochemical. The settings on record: purified SARM1 (50-724) 2 nM, 200 μM NMN activator, 100 μM NAD+ substrate, 1 h at room temperature, read-out: IC50 (SARM1 inhibitory activity). As for the experimental part: Example II. SARM1 (50-724) Enzymatic Assay
An enzymatic assay was performed in a 384-well plate using Dulbecco's phosphate-buffered saline (PBS) as the reaction buffer. Purified SARM1 (50-724) with a final concentration of 2 nM was pre-incubated with a test compound at 1% DMSO final assay concentration for 15 min at room temperature. The reaction was initiated by adding a mixture of 200 μM nicotinamide mononucleotide (NMN) as activator and 100 μM NAD^+ as substrate. After 1 h of incubation at room temperature, the reaction was terminated with 10 times volume of 70% acetonitrile, then centrifuged at 3800 rpm for 10 min. The samples were analyzed using LC-MS/MS after diluted to a proper concentration by 10 mM ammonium acetate (pH 9.75).
ND means “not determined.”
In general, IC50 refers to the concentration that inhibits the measured activity by half. With `CN(C(=O)c1nc2c(S(C)(=O)=O)cccc2[nH]1)C1CCCC1` [Compound 99, N-cyclopentyl-N-methyl-4-(methylsulfonyl)-1H-benzo[d]imidazole-2-carboxamide], the IC50 is no less than 1000 nM. Then `O=C(c1nc2cc(C(F)(F)F)ccc2[nH]1)N(CC(F)(F)CO)c1cc(F)ccc1Cl` [Compound 219, N-(2-chloro-5-fluorophenyl)-N-(2,2-difluoro-3-hydroxypropyl)-5-(trifluoromethyl)-1H-benzo[d]imidazole-2-carboxamide], with 101 to 500 nM; and `C[S+]([O-])CCCN(C(=O)c1nc2cc(C(F)(F)F)ccc2[nH]1)c1cccc(F)c1Cl` (racemic) [Compound 230, N-(2-chloro-3-fluorophenyl)-N-(3-(methylsulfinyl)propyl)-5-(trifluoromethyl)-1H-benzo[d]imidazole-2-carboxamide], with no more than 100 nM.

Consider `Cc1c(Cl)cncc1N(CCO)C(=O)c1nc2c(Cl)c(Cl)ccc2[nH]1` [Compound 175], for which the half-inhibitory concentration (IC50) is 501 to 1000 nM.

Turning to `Cc1cnc2[nH]c(C(=O)N(C)C3CCCC3)c(CO)c2c1` [Compound 38, N-cyclopentyl-3-(hydroxymethyl)-N,5-dimethyl-1H-pyrrolo[2,3-b]pyridine-2-carboxamide], the IC50 was no less than 1000 nM.

Consider `O=C(c1nc2cc(C(F)(F)F)ccc2[nH]1)N(CC1CS(=O)(=O)C1)c1cccc(Cl)c1Cl` [Compound 180, N-(2,3-dichlorophenyl)-N-((1,1-dioxidothietan-3-yl)methyl)-5-(trifluoromethyl)-1H-benzo[d]imidazole-2-carboxamide], for which the IC50 was no more than 100 nM.

Turning to `Cc1ccc2[nH]c(C(=O)N(CCN(C)C)C3CCCC3)nc2c1` [Compound 64, N-cyclopentyl-N-(2-(dimethylamino)ethyl)-5-methyl-1H-benzo[d]imidazole-2-carboxamide], the IC50 was no less than 1000 nM. Then `O=C(c1nc2cc(C(F)(F)F)ccc2[nH]1)N(CC(F)(F)CO)c1cccc(Cl)c1Cl` [Compound 112, N-(2,3-dichlorophenyl)-N-(2,2-difluoro-3-hydroxypropyl)-5-(trifluoromethyl)-1H-benzo[d]imidazole-2-carboxamide], with no more than 100 nM. Then `Cc1ccc2[nH]c(C(=O)N(C)C3CCCC3)nc2c1` [Compound 46, N-cyclopentyl-N,5-dimethyl-1H-benzo[d]imidazole-2-carboxamide], with 101 to 500 nM; and `CN(C(=O)c1nc2cc(C(F)(F)F)ccc2[nH]1)c1ccncc1OC(F)(F)F` [Compound 237, N-methyl-N-(3-(trifluoromethoxy)pyridin-4-yl)-5-(trifluoromethyl)-1H-benzo[d]imidazole-2-carboxamide], with 501 to 1000 nM. Take `Cc1c(F)cncc1N(CCO)C(=O)c1nc2cc(C(F)(F)F)ccc2[nH]1` [compound 169]: the IC50 lay within 101 to 500 nM. Take `O=C(c1nc2cc(C(F)(F)F)ccc2[nH]1)N(CCO)[C@@H]1CCCC[C@H]1OC(F)(F)F` (racemic) [Compound 60, N-(2-hydroxyethyl)-N-((1R,2R)-2-(trifluoromethoxy)cyclohexyl)-5-(trifluoromethyl)-1H-benzo[d]imidazole-2-carboxamide]: the half-inhibitory concentration (IC50) fell in the range of 101 to 500 nM.

Turning to `Cc1c(Cl)ccnc1N(CCO)C(=O)c1nc2cc(C(F)(F)F)ccc2[nH]1` [Compound 145, N-(4-chloro-3-methylpyridin-2-yl)-N-(2-hydroxyethyl)-5-(trifluoromethyl)-1H-benzo[d]imidazole-2-carboxamide], the IC50 is 101 to 500 nM. With `CC1(C)OCC(CN(C(=O)c2nc3cc(C(F)(F)F)ccc3[nH]2)c2cccc(Cl)c2Cl)O1` (racemic) [Compound 173, N-(2,3-dichlorophenyl)-N-((2,2-dimethyl-1,3-dioxolan-4-yl)methyl)-5-(trifluoromethyl)-1H-benzo[d]imidazole-2-carboxamide], the IC50 was no more than 100 nM.

In the case of `Cc1cccc(N(CCO)C(=O)c2nc3cc(C(F)(F)F)ccc3[nH]2)c1Cl` [Compound 151, N-(2-chloro-3-methylphenyl)-N-(2-hydroxyethyl)-5-(trifluoromethyl)-1H-benzo[d]imidazole-2-carboxamide], the IC50 was no more than 100 nM. Then `Cc1ccc2[nH]c(C(=O)N(CCO)c3cccc(Cl)c3Cl)nc2c1` [Compound 98, N-(2,3-dichlorophenyl)-N-(2-hydroxyethyl)-5-methyl-1H-benzo[d]imidazole-2-carboxamide], with no more than 100 nM. Then `Cc1ccc2c(c1)c(CO)c(C(=O)N(C)C1C(C)CCC1C)n2C` (stereo not drawn) [Compound 18, N-(2,5-dimethylcyclopentyl)-3-(hydroxymethyl)-N,1,5-trimethyl-1H-indole-2-carboxamide], with no less than 1000 nM; and `Cc1ccc2[nH]c(C(=O)N(C)C3CCCC3)c(C(N)=O)c2c1` [Compound 96, N2-cyclopentyl-N2,5-dimethyl-1H-indole-2,3-dicarboxamide], with no more than 100 nM. Then `O=C(c1nc2cc(C(F)(F)F)ccc2[nH]1)N(CCC1CNC1)c1cccc(Cl)c1Cl` [Compound 134, N-(2-(azetidin-3-yl)ethyl)-N-(2,3-dichlorophenyl)-5-(trifluoromethyl)-1H-benzo[d]imidazole-2-carboxamide], with 101 to 500 nM; and `Cc1ccc2[nH]c(C(=O)N(C)C3CCCC3)c(CNc3nccs3)c2c1` [Compound 76, N-cyclopentyl-N,5-dimethyl-3-((thiazol-2-ylamino)methyl)-1H-indole-2-carboxamide], with 101 to 500 nM. In the case of `O=C(c1nc2cc(CO)ccc2[nH]1)N(CCO)c1cccc(Cl)c1Cl` [Compound 171], the IC50 was 101 to 500 nM.

With `O=C1CCCN1CCN(C(=O)c1nc2ccc(C(F)(F)F)cc2[nH]1)c1cccc(Cl)c1Cl` [Compound 165, N-(2,3-dichlorophenyl)-N-(2-(2-oxopyrrolidin-1-yl)ethyl)-6-(trifluoromethyl)-1H-benzo[d]imidazole-2-carboxamide], the IC50 is 501 to 1000 nM.

Consider `CN(C(=O)c1nc2c(N3CCOCC3)cccc2[nH]1)C1CCCC1` [Compound 101, N-cyclopentyl-N-methyl-4-morpholino-1H-benzo[d]imidazole-2-carboxamide], for which the IC50 is no less than 1000 nM. `Cc1cc(-c2ccc3[nH]c(C(=O)N(CCO)c4cccc(Cl)c4Cl)nc3c2)sn1` [Compound 144]: the IC50 is 101 to 500 nM. On to `Cc1ccc2[nH]c(C(=O)N(C)c3cccc(Cl)c3Cl)nc2c1` [Compound 123, N-(2,3-dichlorophenyl)-N,5-dimethyl-1H-benzimidazole-2-carboxamide], for which the IC50 was no more than 100 nM. Regarding `O=C(c1nc2cc(C(F)(F)F)ccc2[nH]1)N(CC(F)(F)CO)c1cccc(F)c1Cl` [Compound 185, N-(2-chloro-3-fluorophenyl)-N-(2,2-difluoro-3-hydroxypropyl)-5-(trifluoromethyl)-1H-benzo[d]imidazole-2-carboxamide], the IC50 is no more than 100 nM.

As to `O=C(c1nc2cc(C(F)(F)F)ccc2[nH]1)N(Cc1cc[nH]n1)c1cccc(Cl)c1Cl` [Compound 132, N-((1H-pyrazol-3-yl)methyl)-N-(2,3-dichlorophenyl)-5-(trifluoromethyl)-1H-benzo[d]imidazole-2-carboxamide], the IC50 is no more than 100 nM.

Turning to `Cc1ccc2[nH]c(C(=O)N(C)c3c(Cl)cccc3Cl)c(CO)c2c1` [Compound 5, N-(2,6-dichlorophenyl)-3-(hydroxymethyl)-N,5-dimethyl-1H-indole-2-carboxamide], the IC50 lay within 101 to 500 nM. For `Cc1ccc2[nH]c(C(=O)N(C)c3ccc(Cl)c(C(F)(F)F)c3)c(CO)c2c1` [Compound 11, N-(4-chloro-3-(trifluoromethyl)phenyl)-3-(hydroxymethyl)-N,5-dimethyl-1H-indole-2-carboxamide], the IC50 was no less than 1000 nM. Then `CC(=O)NCCN(C(=O)c1nc2cc(C(F)(F)F)ccc2[nH]1)c1cccc(Cl)c1Cl` [Compound 146, N-(2-acctamidoethyl)-N-(2,3-dichlorophenyl)-5-(trifluoromethyl)-1H-benzo[d]imidazole-2-carboxamide], with no more than 100 nM. Then `CN(C(=O)c1nc2c([nH]1)C(=O)CCC2)C1CCCC1` [Compound 61, N-cyclopentyl-N-methyl-7-oxo-4,5,6,7-tetrahydro-1H-benzo[d]imidazole-2-carboxamide], with no less than 1000 nM; and `CC(C)(O)c1ccc2[nH]c(C(=O)N(CC3(F)COC3)c3cccc(Cl)c3Cl)nc2c1` [Compound 183], with no more than 100 nM; and `O=C(c1nc2cc(C3CC3)ccc2[nH]1)N(CC(F)(F)CO)c1ccc(F)c(F)c1Cl` [Compound 222], with no more than 100 nM.
